{"source": "patent US20090325909A1", "about": "“Suppression of HIV replication and prevention and treatment of HIV” (The Johns Hopkins University, priority 2003, published 2009)", "key": {"[1]": {"test_system": "HIVIIIB", "test": "HIV replication in primary human PBL, p24 ELISA", "format": "cell-based", "from_the_text": "(§1) The HIV strains used in these experiments were HIVBaL (for macrophage infection) and HIVIIIB (for lymphocyte infection); the SIV strains were SIV/17E-Fr and SIV/DeltaB670 (both grow well in primary macrophages and lymphocytes.).\n(§2) Virus replication was quantified over time by p24 (HIV) or p27 (SIV) ELISA."}, "[2]": {"test_system": "SIV/17E-Fr and SIV/DeltaB670", "test": "SIV replication in primary macaque macrophages, p27", "format": "cell-based", "details": "for reduction in SIV p27 levels: SIV/DeltaB670-infected macrophages, 10 days p.i.", "from_the_text": "as §1, §2\nInhibition of SIV Virus in vitro. […]"}, "[3]": {"test_system": "HIVBaL", "test": "HIV replication in primary human macrophages, p24 ELISA", "format": "cell-based", "from_the_text": "as §1, §2"}, "[4]": {"test_system": "SIV/17E-Fr and SIV/DeltaB670", "test": "SIV replication in primary macaque PBL, p27 ELISA", "format": "cell-based", "details": "pretreated with minocycline 24 hr prior to infection", "from_the_text": "as §1, §2"}, "[5]": {"test_system": "SIV/DeltaB670 and SIV/17E-Fr", "test": "Incidence and severity of encephalitis in the accelerated SIV/macaque model", "format": "in vivo, pigtailed macaques (Macaca nemestrina)", "details": "4 mg/kg/day oral from 21 days p.i., euthanized at 84 days p.i., n = 5", "from_the_text": "Primate model for asymptomatic acute SIV infection. To identify events during acute and asymptomatic infection that lead to CNS disease a SIV/macaque model was developed in which the vast majority of infected animals develop CNS disease. […] These findings indicated the presence of mechanisms in the CNS that quell SIV replication and macrophage activation early after infection.\nTo identify events during acute and asymptomatic infection that lead to CNS disease in a SIV/macaque, a model was needed in which the vast majority of infected animals develop CNS disease. […] Virus replication and macrophage activation markers in the CNS declined in all macaques by 21 days p.i., despite high levee virus replication in the peripheral blood at this time. These findings indicated the presence of mechanisms in the CNS that quell SIV replication and macrophage activation early after infection.\nAnimals. Twenty-eight pigtailed macaques (Macaca nemestrina) were intravenously inoculated with a virus swarm, SIV/DeltaB670, and a cloned, neurovirulent virus, SIV/17Efr. Samples of brain tissue (basal ganglia and adjacent subcortical white matter) from macaques euthanized at 10 (n=6), 21′ (n=5), 56 (n=5) and 84 (n−=12) days p.i., and from uninfected control macaques (n=3 to 8) were fixed and embedded and […] sections were cut for immunohistochemical analysis of MAPKs. Of the macaques euthanized at 84 days p.i., one had no morphologic signs of encephalitis, two had mild encephalitis, five had moderate encephalitis and four had severe encephalitis based on morphologic criteria.\nAll macaques were euthanized at 84 days p.i. and their brains examined for pathological lesions typical of SIV encephalitis."}, "[6]": {"details": "pretreated with minocycline 24 hr prior to infection"}}, "note": "Structures can show the parent of a compound that is named as a salt.", "data": [{"smiles": "CN(C)c1ccc(O)c2c1C[C@H]1C[C@H]3[C@H](N(C)C)C(O)=C(C(N)=O)C(=O)[C@@]3(O)C(O)=C1C2=O", "note": "[Minocycline, [4S-(4a,4aa,5aa,12aa)-4,7-bis(dimethylamino)-1,4,4a,5,5a,6,11,12a-octahydro-3,10,12,12a-tetrahydroxy-1,11-dioxo-2-naphthacenecarboxamide]monohydrochloride]", "values": [{"measurement": "reduction in HIV p24 levels", "setting": "[1]; HIV-infected lymphocytes, 40 μg/ml 24 hours prior to infection, 9 days p.i.", "result": 92, "unit": "%"}, {"measurement": "inhibition of HIV replication in PBL", "setting": "[1]; [6]", "result": 92, "unit": "%"}, {"measurement": "inhibition of virus replication", "setting": "[2]; SIV/17E-Fr-infected macrophages", "result": 85, "unit": "%"}, {"measurement": "reduction in SIV p27 levels", "setting": "[2]; 10 μg/ml at the time of infection", "result": 95, "unit": "%"}, {"measurement": "reduction in SIV p27 levels", "setting": "[2]; 40 μg/ml prior to infection", "result": 98, "unit": "%"}, {"measurement": "inhibition of SIV replication in macrophages", "setting": "[2]; [6]", "result": 85, "unit": "%"}, {"measurement": "reduction in HIV p24 levels", "setting": "[3]; HIV-infected macrophages, 40 μg/ml 24 hours prior to infection, 9 days p.i.", "result": 99, "unit": "%"}, {"measurement": "inhibition of HIV replication in macrophages", "setting": "[3]; [6]", "result": 99, "unit": "%"}, {"measurement": "inhibition of SIV replication in PBL", "setting": "[4]", "result": 99, "unit": "%"}, {"measurement": "Severity of Encephalitis: Mild (number of macaques)", "setting": "[5]", "result": 2}, {"measurement": "Severity of Encephalitis: Moderate (number of macaques)", "setting": "[5]", "result": 0}, {"measurement": "Severity of Encephalitis: None (number of macaques)", "setting": "[5]", "result": 3}, {"measurement": "Severity of Encephalitis: Severe (number of macaques)", "setting": "[5]", "result": 0}]}]}
